Our source for the IC50, EC50 and Kd values is ChEMBL document CHEMBL5505952, “Targeting SARS-CoV-2 entry processes: The promising potential and future of host-targeted small-molecule inhibitors” (Eur J Med Chem, 2024).

*1 amine or outer side, *2 acyl side, *3 side chain or, on linkers, in order; H or OH if unused. Where a SMILES comes first, the peptide text is derived from it. [ ]: non-standard residue; d: D form. The star is where a group is joined. X1 = N=C(N)NCCC[C@H](N[*:1])C(=O)c1nc2ccc(C(=O)[*:2])cc2s1; Nle = CCCC[C@H](N)C(=O)O; Cbz = O=C(OCc1ccccc1)* Some results are limits rather than exact numbers.

Experiment [1] relates to SARS-CoV-2. Briefly: Antiviral activity against SARS-CoV-2 WA1/2020 infected in human Calu-3 cells preincubated for 2 hrs followed by viral infection and measured after 48 hrs by microscopy analysis. Type of experiment: functional, organism-based. The note with it: Severe acute respiratory syndrome coronavirus 2, WA1/2020, Calu-3.
For experiment [2], the system named is SARS-CoV-2. The experiment is described as follows: Antiviral activity against VSV-S pseudotyped SARS-CoV-2 infected in human Calu-3 cells assessed as inhibition of viral growth. Type of experiment: functional, organism-based. The following applies: Severe acute respiratory syndrome coronavirus 2, Calu-3.
In experiment [3] the test system is SARS-CoV-2. In kind it is functional, organism-based. The following applies: Severe acute respiratory syndrome coronavirus 2, Vero C1008, 72 h.
For experiment [4], the target named is T1, 1-phosphatidylinositol 3-phosphate 5-kinase (Homo sapiens, UniProt Q9Y2I7). The experiment is described as follows: Binding affinity to N-terminal His-tagged human PIKfyve expressed in Sf9 cells assessed as dissociation constant.
T1 sequence (Q9Y2I7 whole entry): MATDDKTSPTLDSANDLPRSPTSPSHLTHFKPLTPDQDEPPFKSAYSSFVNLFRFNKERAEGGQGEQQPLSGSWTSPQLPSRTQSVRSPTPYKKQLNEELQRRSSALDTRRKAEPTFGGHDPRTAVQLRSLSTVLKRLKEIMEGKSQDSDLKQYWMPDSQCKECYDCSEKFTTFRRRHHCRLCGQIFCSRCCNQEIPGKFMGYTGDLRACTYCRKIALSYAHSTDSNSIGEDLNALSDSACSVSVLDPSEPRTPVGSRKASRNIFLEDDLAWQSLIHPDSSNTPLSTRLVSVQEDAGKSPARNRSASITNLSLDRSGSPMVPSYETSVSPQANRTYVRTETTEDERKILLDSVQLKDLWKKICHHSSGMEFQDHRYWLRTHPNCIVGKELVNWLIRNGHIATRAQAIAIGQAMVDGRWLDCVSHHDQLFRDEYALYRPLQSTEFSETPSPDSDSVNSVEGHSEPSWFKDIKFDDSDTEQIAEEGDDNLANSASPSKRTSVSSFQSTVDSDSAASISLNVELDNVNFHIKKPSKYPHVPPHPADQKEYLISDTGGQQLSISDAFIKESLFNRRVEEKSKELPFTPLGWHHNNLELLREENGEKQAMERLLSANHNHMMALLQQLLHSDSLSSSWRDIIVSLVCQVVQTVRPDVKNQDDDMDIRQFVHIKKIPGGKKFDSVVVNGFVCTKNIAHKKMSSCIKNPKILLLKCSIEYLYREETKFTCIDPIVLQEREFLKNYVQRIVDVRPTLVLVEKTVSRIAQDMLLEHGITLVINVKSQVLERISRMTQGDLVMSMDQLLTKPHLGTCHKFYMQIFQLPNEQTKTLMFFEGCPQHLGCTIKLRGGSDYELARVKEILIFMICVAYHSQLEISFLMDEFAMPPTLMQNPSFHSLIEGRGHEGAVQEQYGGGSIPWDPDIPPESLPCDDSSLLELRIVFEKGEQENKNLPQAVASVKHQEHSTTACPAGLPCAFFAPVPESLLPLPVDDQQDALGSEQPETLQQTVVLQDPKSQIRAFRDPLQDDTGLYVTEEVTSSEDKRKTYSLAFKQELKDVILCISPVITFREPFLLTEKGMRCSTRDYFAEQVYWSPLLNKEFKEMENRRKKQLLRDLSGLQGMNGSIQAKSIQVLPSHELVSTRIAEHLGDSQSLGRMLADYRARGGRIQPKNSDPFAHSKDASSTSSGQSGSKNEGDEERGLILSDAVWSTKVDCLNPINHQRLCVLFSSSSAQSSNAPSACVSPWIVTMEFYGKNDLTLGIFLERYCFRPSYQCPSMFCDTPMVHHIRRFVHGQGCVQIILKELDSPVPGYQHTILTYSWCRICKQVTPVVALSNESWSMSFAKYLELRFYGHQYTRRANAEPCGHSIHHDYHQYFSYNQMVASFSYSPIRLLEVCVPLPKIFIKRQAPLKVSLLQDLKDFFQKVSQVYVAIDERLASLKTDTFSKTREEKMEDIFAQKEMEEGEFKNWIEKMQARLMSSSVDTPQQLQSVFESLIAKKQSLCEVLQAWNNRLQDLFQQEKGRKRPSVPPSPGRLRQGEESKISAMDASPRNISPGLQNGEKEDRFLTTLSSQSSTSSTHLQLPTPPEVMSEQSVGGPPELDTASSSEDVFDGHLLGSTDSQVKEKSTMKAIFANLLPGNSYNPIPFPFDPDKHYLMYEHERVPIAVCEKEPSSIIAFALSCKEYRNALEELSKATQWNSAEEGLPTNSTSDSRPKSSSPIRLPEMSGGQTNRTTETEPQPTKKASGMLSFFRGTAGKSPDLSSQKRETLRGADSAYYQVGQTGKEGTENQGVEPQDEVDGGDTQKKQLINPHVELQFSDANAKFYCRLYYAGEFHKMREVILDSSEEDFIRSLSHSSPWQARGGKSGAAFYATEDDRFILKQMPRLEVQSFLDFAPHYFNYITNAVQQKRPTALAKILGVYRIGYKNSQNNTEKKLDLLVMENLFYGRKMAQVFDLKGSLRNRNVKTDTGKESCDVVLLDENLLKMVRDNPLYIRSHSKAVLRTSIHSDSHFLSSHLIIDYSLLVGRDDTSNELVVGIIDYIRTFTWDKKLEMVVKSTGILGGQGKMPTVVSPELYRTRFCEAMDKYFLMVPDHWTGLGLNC
The test system of experiment [5] is SARS-CoV-2. Type of experiment: functional, organism-based. The note with it: Severe acute respiratory syndrome coronavirus 2, NRC-03-nhCoV, Vero C1008, 72 h.
A further experiment concerns RAW264.7. The experiment is described as follows: Antiinflammatory activity in mouse RAW264.7 cells assessed as effect on LPS induced IL-12p40 level measured after 24 hrs by RT-qPCR analysis. Type of experiment: functional, cell-based. The note with it: RAW264.7, 24 h. (In qPCR the cycle at which signal appears reflects the starting amount.)
Experiment [6] deals with T1, 1-phosphatidylinositol 3-phosphate 5-kinase. The experiment is described as follows: Inhibition of PIKfyve (unknown origin).
For experiment [7], the system named is SARS-CoV-2. In kind it is functional, organism-based. The following applies: Severe acute respiratory syndrome coronavirus 2, Vero C1008, 48 h.
Experiment [8] deals with SARS-CoV-2. The experiment is described as follows: microbe, parasite or virus in culture. The note with it: Severe acute respiratory syndrome coronavirus 2, Vero C1008, 24 h.
In experiment [9] the test system is SARS-CoV-2. The experiment is described as follows: microbe, parasite or virus in culture. The following applies: Severe acute respiratory syndrome coronavirus 2, Huh-7.
The subject of experiment [10] is SARS-CoV-2. Type of experiment: functional, organism-based. The note with it: Severe acute respiratory syndrome coronavirus 2, Vero C1008, 48 h. The source holds these as a separate data set.
Experiment [11] concerns SARS-CoV-2. Briefly: Antiviral activity against SARS-CoV-2 USA-WA1/2020 infected in human Calu-3 cells assessed as reduction in viral replication by qRT-PCR analysis. The following applies: Severe acute respiratory syndrome coronavirus 2, USA-WA1/2020, Calu-3. Type of experiment: functional, organism-based.
Experiment [12] relates to SARS-CoV-2. Type of experiment: functional, organism-based. The note with it: Severe acute respiratory syndrome coronavirus 2, USA-WA1/2020, Huh-7.
Experiment [13] has as its system SARS-CoV-2. The experiment is described as follows: Antiviral activity against SARS-CoV-2 USA-WA1/2020 infected in african green monkey Vero C1008 cells assessed as reduction in viral replication by qRT-PCR analysis. In kind it is functional, organism-based. The note with it: Severe acute respiratory syndrome coronavirus 2, USA-WA1/2020, Vero C1008.
For experiment [14], the system named is SARS-CoV-2. In kind it is functional, organism-based. The note with it: Severe acute respiratory syndrome coronavirus 2, Omicron B.1.617.2 delta, 293T/ACE2, 48 h.
Experiment [15] deals with SARS-CoV-2. Briefly: microbe, parasite or virus in culture. The note with it: Severe acute respiratory syndrome coronavirus 2, Huh-7. This is another data set of the same source.
In experiment [16] the test system is SARS-CoV-2. The experiment is described as follows: microbe, parasite or virus in culture. The note with it: Severe acute respiratory syndrome coronavirus 2, USA-WA1/2020, Vero 76, 72 h.
The test system of experiment [17] is SARS-CoV-2. Briefly: microbe, parasite or virus in culture. The note with it: Severe acute respiratory syndrome coronavirus 2, Vero C1008, 24 h. This is another data set of the same source.
Experiment [18] has as its system SARS-CoV-2. Briefly: microbe, parasite or virus in culture. The following applies: Severe acute respiratory syndrome coronavirus 2, Calu-3, 48 h.
Experiment [19] deals with SARS-CoV-2. In kind it is functional, organism-based. The note with it: Severe acute respiratory syndrome coronavirus 2, Huh-7.
The target in experiment [20] is T2, Procathepsin L (Homo sapiens, UniProt P07711). The experiment is described as follows: Inhibition of Cathepsin L (unknown origin).
T2 sequence (P07711 whole entry): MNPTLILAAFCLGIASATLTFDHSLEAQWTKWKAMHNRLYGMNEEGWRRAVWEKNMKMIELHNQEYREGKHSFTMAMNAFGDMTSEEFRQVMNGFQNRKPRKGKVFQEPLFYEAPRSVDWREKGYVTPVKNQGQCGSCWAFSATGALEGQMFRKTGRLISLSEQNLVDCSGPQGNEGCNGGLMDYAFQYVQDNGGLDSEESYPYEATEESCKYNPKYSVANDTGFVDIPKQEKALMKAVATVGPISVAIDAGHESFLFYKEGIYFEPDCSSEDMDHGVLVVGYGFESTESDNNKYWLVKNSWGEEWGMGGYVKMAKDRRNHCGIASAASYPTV
For experiment [21], the system named is SARS-CoV-2. Type of experiment: functional, organism-based. The following applies: Severe acute respiratory syndrome coronavirus 2, Huh-7. This is another data set of the same source.
The target in experiment [22] is Replicase polyprotein 1ab (Severe acute respiratory syndrome coronavirus 2, UniProt P0DTD1). Briefly: Inhibition of SARS-Cov-2 Main protease by FRET assay.
Experiment [23] has as its target T2, Procathepsin L. Briefly: Inhibition of human recombinant Cathepsin L using Z-Phe-Arg-AMC as substrate incubated for 60 mins by fluorescence spectrophotometric analysis.
Experiment [24] has as its system SARS-CoV-2. In kind it is functional, organism-based. The note with it: Severe acute respiratory syndrome coronavirus 2, Wuhan-Hu-1, Vero C1008.

One may read the IC50 as the concentration needed to halve the response being measured. Usually EC50 stands for the midpoint of the concentration-response curve. On to `CC(=O)N1CCC[C@H]1C(=O)N[C@@H](CCC(N)=O)C(=O)N[C@@H](Cc1ccccc1)C(=O)N[C@@H](CCCNC(=N)N)C(=O)c1nc2ccccc2s1`, for which 105 nM corresponded to half-maximal inhibition in the experiment on SARS-CoV-2 [1] (IC50). Moreover, the EC50 in the experiment on SARS-CoV-2 [2] turned out to be 0.86 nM. As a reminder, the Kd is a measure of binding affinity in units of concentration. For `Cc1ccc(NC(=O)c2cccc(C(F)(F)F)c2)cc1Nc1nc(-c2ccncc2)c2[nH]ccc2n1`, in the experiment with SARS-CoV-2 [3], a half-maximal effect (EC50) was put at 12300 nM. Moreover, in experiment [4], the Kd is above 30000 nM. Turning to `N=C(N/N=C/c1ccncc1)c1nonc1NCNc1nonc1C(=N)N/N=C/c1ccncc1`, the IC50 with SARS-CoV-2 [5] was 16 nM.

Turning to `Cc1ncc(-c2ccc(C3=CCN(C(C)C)CC3)nc2)cc1NC(=O)c1ccc2[nH]c(C)c(C)c2n1`, in the experiment with RAW264.7, the IC50 was found to be 2 nM.

`CC[C@@H](C)[C@H](NC(C)=O)C(=O)N[C@@H](CCC(N)=O)C(=O)N[C@@H](Cc1ccccc1)C(=O)N[C@@H](CCCNC(=N)N)C(=O)c1nc2ccccc2s1` gave an IC50 in the experiment on SARS-CoV-2 [1] of 102 nM. In the experiment on SARS-CoV-2 [2], the EC50 was determined as 3.6 nM. Turning to `CCc1c(C)[nH]c2ccc(C(=O)Nc3cncc(-c4ccc(N5C[C@@H](C)O[C@@H](C)C5)nc4)c3)nc12`, in the experiment on RAW264.7, the IC50 was found to be 2.4 nM. As for `Nc1ncc2c(n1)Cc1c([nH]c3ccc(-c4ccc(F)cc4)cc13)CC2`, the results for the IC50 (in experiment [6]; in the experiment with SARS-CoV-2 [7]) were 9.3 nM and 73.3 nM, respectively. For the compound `Cn1nc(C(C)(C)C)cc1C(=O)N[C@@H](Cc1cccc(Cl)c1)C(=O)NCC#N`, a half-maximal effect in the experiment with SARS-CoV-2 [8] (EC50) was put at 140 nM. For `CCCC[C@@H](C=O)NC(=O)[C@H](CC(C)C)NC(=O)[C@H](CC(C)C)NC(C)=O` (Ac-Leu-Leu-[Nle]-aldehyde), the EC50 with SARS-CoV-2 [9] was 3120 nM. In the case of `CC(=O)N[C@@H](CO)C(=O)N[C@@H](CCCCN)C(=O)N[C@@H](CC(C)C)C(=O)N[C@@H](CCCNC(=N)N)C(=O)c1nc2ccc(C(=O)N[C@H](C(N)=O)C(C)C)cc2s1` (Ac-SKL[X1]V-NH2), the figures for the EC50 with SARS-CoV-2 [10] and in the experiment with SARS-CoV-2 [2] were 307 nM and 489 nM, respectively. For `O=C[C@H](Cc1ccc(O)cc1)NC(=O)[C@H](Cc1ccccc1)NC(=O)OCc1ccccc1` (Cbz-Phe-Tyr-aldehyde), a half-maximal effect in the experiment with SARS-CoV-2 [8] (EC50) was put at 620 nM. Same read-out and setting: next, `CC(C)[C@H](NC(=O)OCc1ccccc1)C(=O)N[C@H](C=O)Cc1ccccc1` (Cbz-Val-Phe-aldehyde): 1560 nM; `CCOC(=O)[C@H]1O[C@@H]1C(=O)N[C@@H](CC(C)C)C(=O)NCCC(C)C` [ALOXISTATIN]: 270 nM. Take `N=C(N)NCCCCC(=O)Nc1cc(C(F)(F)F)cc(NC(=O)c2cc(C(=O)Nc3cc(C(F)(F)F)cc(NC(=O)CCCCNC(=N)N)c3O[C@@H]3CCNC3)ncn2)c1O[C@@H]1CCNC1` [BRILACIDIN]: the IC50 in the experiment with SARS-CoV-2 [11], in the experiment with SARS-CoV-2 [12], in the experiment with SARS-CoV-2 [13] and with SARS-CoV-2 [14] was 12000 nM in each case. With `CCCC[C@@H](C=O)NC(=O)[C@H](CC(C)C)NC(=O)OCc1ccccc1` [CALPEPTIN], the EC50 in the experiment on SARS-CoV-2 [15] was found to be 29800 nM; in the experiment on SARS-CoV-2 [16] it was 1030 nM. With `C#Cc1cccc(Nc2ncnc3cc(OCCOC)c(OCCOC)cc23)c1` [ERLOTINIB], the EC50 in the experiment with SARS-CoV-2 [17] and in the experiment with SARS-CoV-2 [18] was above 20000 nM throughout.

For `CC(C)C[C@@H](C=O)NC(=O)[C@H](CC(C)C)NC(=O)[C@H](CC(C)C)NC(=O)OCc1ccccc1` [MG-132] (Cbz-Leu-Leu-Leu-aldehyde), the figures for the EC50 in the experiment on SARS-CoV-2 [19] and with SARS-CoV-2 [21] were 210 nM and 212 nM, respectively. This compound showed a half-maximal inhibitory concentration (IC50) against Procathepsin L [20] of 12.3 nM.

For `CCN(CC)CCNC(=O)c1c(C)[nH]c(/C=C2\C(=O)Nc3ccc(F)cc32)c1C` [SUNITINIB], the EC50 came out at 2400 nM with SARS-CoV-2 [17] and 2900 nM in the experiment on SARS-CoV-2 [18]. As for `N[C@H]1C(=O)N[C@@H]2Cc3ccc(c(Cl)c3)Oc3cc4cc(c3O)Oc3ccc(cc3Cl)[C@@H](O)[C@@H]3NC(=O)[C@H](NC(=O)[C@@H]4NC(=O)[C@@H](NC2=O)c2cc(O)cc(c2)Oc2cc1ccc2O)c1ccc(O)c(c1)-c1c(O)cc(O)cc1[C@@H](C(=O)O)NC3=O` [TEICOPLANIN AGLYCON], the figures for the IC50 (in [22]; at Procathepsin L [23]; in the experiment on SARS-CoV-2 [24]) were 1460 nM, 208000 nM and 2040 nM, respectively.
